Experiments:
Assay type in all cases: cell-based, human
[1] = system: HTT; test: Splicing RT-qPCR assay, HTT mRNA canonical junction (CJ) and alternative junction (AJ); settings: Homo sapiens; for AC50: increase in AJ mRNA
Method in brief: (§1)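 Cells: A673 (DMEM/10% FBS) or K562 (IMDM/10% FBS). Dose: 11-pt 3-fold, top 10 uM final, ≤0.25% DMSO, 24 h, 37 °C. Readout: RT-qPCR of CJ/AJ exon junctions, ΔΔCt vs housekeeper and DMSO, RQ to % response.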

[2] = system: MYB; test: HiBiT protein abundance assay, MYB; settings: Homo sapiens, K562, 24 h, Table 13A, modified K562 cells
Method in brief: (§2)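 Tagged-target degradation assay: HiBiT-modified K562 cells treated 24 h with compound, 10 concentrations up to 10 μM final. Following lysis with LgBiT and substrate, luminescence gave normalized abundance; IC50 derived by logistic interpolation at 50%.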

[3] = system: Target C; test: HiBiT protein abundance assay, Target C; settings: Table 13A, modified K562 cells
Method in brief: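 Target tagged with HiBiT by knock-in; 24 h dosing, 10 μM top final in 3-fold steps. IC50 from 4PL fit of normalized luminescence.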

[4] = system: MYB; test: Splicing RT-qPCR assay, MYB mRNA canonical junction (CJ) and alternative junction (AJ); settings: Homo sapiens; for AC50: increase in AJ mRNA
Method in brief: as §1

[5] = system: SMN2; test: Splicing RT-qPCR panel, SMN2 canonical junction (CJ) mRNA; settings: Homo sapiens, RT-qPCR panel, canonical junction mRNA; compound concentration having 50% response in CJ decrease; read-out: SMN2 IC50 (decrease in CJ mRNA levels)
Method in brief: as §1

[6] = system: Target C; test: Splicing RT-qPCR panel, Target C canonical junction (CJ) mRNA; settings: Homo sapiens, RT-qPCR panel, canonical junction mRNA; compound concentration having 50% response in CJ decrease; read-out: Target C IC50 (decrease in CJ mRNA levels)
Method in brief: as §1

[7] = system: HTT; test: HiBiT protein abundance assay, HTT; settings: Homo sapiens, K562, 24 h, Table 13A, modified K562 cells
Method in brief: as §2

[8] = 24 h, decrease in CJ mRNA, A673 or K562 cells, 24 hours treatment, RT-qPCR, read-out: HTT CJ IC50
[9] = 24 h, A673 or K562 cells, 24 hours treatment, RT-qPCR
[10] = RT-qPCR panel, canonical junction mRNA, compound concentration having 50% response in CJ decrease, read-out: HTT IC50 (decrease in CJ mRNA levels)
[11] = 24 h, decrease in CJ mRNA, A673 or K562 cells, 24 hours treatment, RT-qPCR, read-out: MYB CJ IC50
[12] = RT-qPCR panel, canonical junction mRNA, compound concentration having 50% response in CJ decrease, read-out: MYB IC50 (decrease in CJ mRNA levels)

SMILES	IC50 [1, 8]	AC50 [1, 9]	IC50 [1, 10]	IC50 [2]	IC50 ([3]; Homo sapiens, K562, 24 h)	IC50 [4, 11]	AC50 [4, 9]	IC50 [4, 12]	IC50 [5]	IC50 [6]	IC50 [7]	IC50 ([3]; 24 hours)
CC(C)(C)NC1CCN(c2ccc(-c3ccc(-c4cn[nH]c4)c4cn[nH]c34)nn2)C1 (stereo not shown) [Compound 305]	0.1 to 1 µM	0.1 to 1 µM	0.1 to 1 µM	0.1 to 1 µM	1 to 10 µM	1 to 10 µM	1 to 10 µM	1 to 10 µM	< 0.1 µM	1 to 10 µM	0.1 to 1 µM	
c1n[nH]cc1-c1ccc(-c2ccc(N3CCC(NC4CC4)C3)nn2)c2[nH]ncc12 (stereo not shown) [Compound 306]	> 10 µM	1 to 10 µM	> 10 µM	1 to 10 µM	> 10 µM	> 10 µM	> 10 µM	> 10 µM	0.1 to 1 µM	> 10 µM	1 to 10 µM	
CC(C)(C)NC1CCN(c2ccc(-c3ccc(-n4cccn4)c4cn[nH]c34)nn2)C1 (stereo not shown) [Compound 310]	1 to 10 µM	1 to 10 µM	1 to 10 µM	1 to 10 µM	1 to 10 µM	1 to 10 µM	> 10 µM	1 to 10 µM	0.1 to 1 µM	> 10 µM	1 to 10 µM	
CN(c1ccc(-c2ccc(-c3cnn(C4CC4)n3)c3cn[nH]c23)nn1)[C@@H]1C[C@H]2CC[C@@H](C1)N2 [Compound 312, (1R,3s,5S)-N-(6-(4-(2-cyclopropyl-2H-1,2,3-triazol-4-yl)-1H-indazol-7-yl)pyridazin-3-yl)-N-methyl-8-azabicyclo[3.2.1]octan-3-amine]	1 to 10 µM	1 to 10 µM	1 to 10 µM	0.1 to 1 µM	1 to 10 µM	1 to 10 µM	0.1 to 1 µM	1 to 10 µM	0.1 to 1 µM	1 to 10 µM	0.1 to 1 µM	
CN(c1ccc(-c2ccc(-c3cnn(C)n3)c3cn[nH]c23)nn1)C1CCNCC1 [Compound 315, N-methyl-6-[4-(2-methyl-1,2,3-triazol-4-yl)-1H-indazol-7-yl]-N-(piperidin-4-yl)pyridazin-3-amine]	1 to 10 µM	1 to 10 µM	1 to 10 µM	0.1 to 1 µM	> 10 µM	1 to 10 µM	1 to 10 µM	1 to 10 µM	0.1 to 1 µM	> 10 µM	0.1 to 1 µM	
Cn1ncc(-c2ccc(-c3ccc(OC4CC(C)(C)NC(C)(C)C4)nn3)c3[nH]ncc23)n1 [Compound 316]	0.1 to 1 µM	0.1 to 1 µM	0.1 to 1 µM	0.1 to 1 µM	0.1 to 1 µM	0.1 to 1 µM	0.1 to 1 µM	0.1 to 1 µM	< 0.1 µM	1 to 10 µM	0.1 to 1 µM	
CCn1ncc(-c2ccc(-c3ccc(N(C)[C@@H]4C[C@H]5CC[C@@H](C4)N5)nn3)c3[nH]ncc23)n1 [Compound 317, N-{6-[4-(2-ethyl-1,2,3-triazol-4-yl)-1H-indazol-7-yl]pyridazin-3-yl}-N-methyl-8-azabicyclo[3.2.1]octan-3-amine]	0.1 to 1 µM	0.1 to 1 µM	0.1 to 1 µM	0.1 to 1 µM	0.1 to 1 µM	0.1 to 1 µM	0.1 to 1 µM	0.1 to 1 µM	1 to 10 µM	1 to 10 µM	0.1 to 1 µM	
CN(c1ccc(-c2ccc(-c3cnn(CC4CC4)n3)c3cn[nH]c23)nn1)[C@@H]1C[C@H]2CC[C@@H](C1)N2 [Compound 318, N-(6-{4-[2-(cyclopropylmethyl)-1,2,3-triazol-4-yl]-1H-indazol-7-yl}pyridazin-3-yl)-N-methyl-8-azabicyclo[3.2.1]octan-3-amine]	1 to 10 µM	1 to 10 µM	1 to 10 µM	1 to 10 µM	1 to 10 µM	1 to 10 µM	1 to 10 µM	1 to 10 µM	1 to 10 µM	1 to 10 µM	1 to 10 µM	
Cn1cc(-c2c(F)cc(-c3ccc(OC4CC(C)(C)NC(C)(C)C4)nn3)c3[nH]ncc23)cn1 [Compound 319, 5-fluoro-4-(1-methylpyrazol-4-yl)-7-{6-[(2,2,6,6-tetramethylpiperidin-4-yl)oxy]pyridazin-3-yl}-1H-indazole]	0.1 to 1 µM	0.1 to 1 µM	0.1 to 1 µM	0.1 to 1 µM	1 to 10 µM	0.1 to 1 µM	1 to 10 µM	0.1 to 1 µM	< 0.1 µM	1 to 10 µM	0.1 to 1 µM	
CN(c1ccc(-c2cc(F)c(-c3cnn(C)c3)c3cn[nH]c23)nn1)C1CC(C)(C)NC(C)(C)C1 [Compound 320, 6-[5-fluoro-4-(1-methylpyrazol-4-yl)-1H-indazol-7-yl]-N-methyl-N-(2,2,6,6-tetramethylpiperidin-4-yl)pyridazin-3-amine]	0.1 to 1 µM	0.1 to 1 µM	0.1 to 1 µM	0.1 to 1 µM		0.1 to 1 µM		0.1 to 1 µM	< 0.1 µM	1 to 10 µM	0.1 to 1 µM	0.1 to 1 µM
Cn1ncc(-c2ccc(-c3ccc(O[C@@H]4C[C@H]5CC[C@@H](C4)N5)nn3)c3[nH]ncc23)n1 [Compound 321, 7-{6-[(1R,3S,5S)-8-azabicyclo[3.2.1]octan-3-yloxy]pyridazin-3-yl}-4-(2-methyl-1,2,3-triazol-4-yl)-1H-indazole]	0.1 to 1 µM	0.1 to 1 µM	0.1 to 1 µM	0.1 to 1 µM	0.1 to 1 µM	0.1 to 1 µM	0.1 to 1 µM	0.1 to 1 µM	< 0.1 µM	0.1 to 1 µM	0.1 to 1 µM	
Cn1ncc(-c2ccc(-c3ccc(N[C@@H]4C[C@H]5CC[C@@H](C4)N5)nn3)c3[nH]ncc23)n1 [Compound 322]		< 0.1 µM	< 0.1 µM	< 0.1 µM	< 0.1 µM	< 0.1 µM	< 0.1 µM	< 0.1 µM	< 0.1 µM	< 0.1 µM	< 0.1 µM	
Cn1cc(-c2ccc(-c3ccc(O[C@@H]4C[C@H]5CC[C@@H](C4)N5)nn3)c3[nH]ncc23)nn1 [Compound 323, 7-{6-[(1R,3S,5S)-8-azabicyclo[3.2.1]octan-3-yloxy]pyridazin-3-yl}-4-(1-methyl-1,2,3-triazol-4-yl)-1H-indazole]	0.1 to 1 µM	0.1 to 1 µM	0.1 to 1 µM	0.1 to 1 µM	1 to 10 µM	0.1 to 1 µM	0.1 to 1 µM	0.1 to 1 µM	< 0.1 µM	1 to 10 µM	0.1 to 1 µM	
Cn1cc(-c2ccc(-c3ccc(N[C@@H]4C[C@H]5CC[C@@H](C4)N5)nn3)c3[nH]ncc23)nn1 [Compound 324, (1R,3s,5S)-N-(6-(4-(1-methyl-1H-1,2,3-triazol-4-yl)-1H-indazol-7-yl)pyridazin-3-yl)-8-azabicyclo[3.2.1]octan-3-amine]	1 to 10 µM	1 to 10 µM	1 to 10 µM	1 to 10 µM	1 to 10 µM	1 to 10 µM	1 to 10 µM	1 to 10 µM	0.1 to 1 µM	> 10 µM	1 to 10 µM	
Cn1cc(-c2ccc(-c3ccc(OC4CC(C)(C)NC(C)(C)C4)nn3)c3[nH]ncc23)nn1 [Compound 325, 4-(1-methyl-1H-1,2,3-triazol-4-yl)-7-(6-((2,2,6,6-tetramethylpiperidin-4-yl)oxy)pyridazin-3-yl)-1H-indazole]	1 to 10 µM	1 to 10 µM	1 to 10 µM	1 to 10 µM	> 10 µM	1 to 10 µM	1 to 10 µM	1 to 10 µM	0.1 to 1 µM	> 10 µM	1 to 10 µM	

Reference: patent US20240368163A1, “COMPOUNDS AND METHODS FOR MODULATING SPLICING” (REMIX THERAPEUTICS INC., priority 2021, published 2024)
